This note sets out measurements from US10647675B2 (priority 2015, dated 2020).

For test [1], the system named is Trichophyton rubrum KD-1130. The test is described as follows: Antifungal activity evaluation test: minimum inhibitory concentration (MIC), broth dilution by reference to CLSI M38-A2. The settings on record: KD1130, read-out: MIC (T. rubrum). Type of test: cell-based. As for the experimental part: (§1) The minimum inhibitory concentration (MIC) for Trichophyton mentagrophytes and Trichophyton rubrum was measured by the following procedure by reference to Clinical and Laboratory standards Institute (CLSI) guidelines M38-A2. Reference document for the measurement method: National Committee for a Clinical Laboratory Standards. Reference method for broth dilution antifungal susceptibility testing of filamentous fungi. Approved standard Second edition M38-A2. Wayne, Pa.: National Committee for a Clinical Laboratory Standards, 2008. • Test compound solution: A test compound was dissolved in dimethyl sulfoxide (DMSO) at a concentration of 2.5 mg/mL to give a stock solution. The stock solution was appropriately diluted with DMSO to prepare a 2-fold dilution series. As control compounds, terbinafine and amorolfine were used. • Test strains: Trichophyton mentagrophytes SM-110 and Trichophyton rubrum KD-1130 were used. • Preparation of fungal culture to be inoculated: The above-mentioned test strain was suspended in 0.05% Tween 80-containing saline, and the fungi of the genus Trichophyton were prepared to a fungal concentration of 1×10^6 cells/mL by using a hemocytometer. Then, using MOPS-buffered RPMI 1640 medium (pH 7.0) as a test medium, a fungal culture of the fungi of the genus Trichophyton was diluted 250-fold (4×10^3 cells/mL) to give a fungal culture for inoculation. • MIC measurement of genus Trichophyton fungi: MOPS-buffered RPMI 1640 medium (pH 7.0) was dispensed by 100 μL to given wells of a 96 well U-bottom microplate. Then, the test compound solution (2 μL) was added, the mixture was sufficiently stirred by a plate mixer. The fungal culture (100 μL) was inoculated and the mixture was cultured at 35° C. for 4 days (final fungal concentration: 2×10^3 cells/mL). After the culture, the minimum drug concentration of a well in which a growth inhibitory action of not less than 80% was visually observed as compared to a growth control was taken as a minimum inhibitory concentration (MIC: μg/mL).
(§2) The abbreviations in the Tables mean the following fungi and compounds. • T. menta.: Trichophyton mentagrophytes • T. rubrum: Trichophyton rubrum • TBF: terbinafine • AMF: amorolfine

Test [2] relates to Trichophyton mentagrophytes SM-110. Described as above. Type of test: cell-based. The settings on record: SM110, read-out: MIC (T. menta.). As to the method:
as §1, §2

The structures appear in SMILES notation. ≈ marks a conversion by molar mass, not a printed value.

Consider `COc1ccncc1-c1cccnc1Oc1ccc(C=O)cc1` [I-246], for which the MIC in test [1] and in test [2] was 1.56 to 6.25 µg/mL (≈ 5.09 to 20.4 µM) each time.
For `COc1ccc(OC)c(-c2cccnc2Oc2ccc(C(C)(F)F)nc2)n1` [I-96, 2′-{[6-(1,1-difluoroethyl)pyridin-3-yl]oxy}-3,6-dimethoxy-2,3′-bipyridine], the MIC in test [1] and in test [2] was not above 0.1 µg/mL in each case.
For the compound `O=[N+]([O-])c1ccccc1-c1cccnc1Oc1ccc(C(F)(F)F)nc1` [I-15, 3-(2-nitrophenyl)-2-{[6-(trifluoromethyl)pyridin-3-yl]oxy}pyridine], the MIC in test [1] and in test [2] was 0.2 to 0.78 µg/mL (≈ 0.554 to 2.16 µM) in each case.
Turning to `COc1ccccc1-c1ccc(C)nc1Oc1ccc(C(F)(F)F)nc1` [I-67], the MIC in test [1] and in test [2] was 0.2 to 0.78 µg/mL (≈ 0.555 to 2.16 µM) in each case.
Consider `COc1ccccc1-c1cccnc1Oc1ccc(OCCc2ccccc2)nc1` [I-173, 3-(2-methoxyphenyl)-2-[(6-phenethoxypyridin-3-yl)oxy]pyridine], for which the MIC in test [1] and in test [2] was not above 0.1 µg/mL in each case.
As for `Fc1cccc(F)c1-c1cccnc1Oc1ccc(C(F)(F)F)nc1` [I-6, 3-(2,6-difluorophenyl)-2-{[6-(trifluoromethyl)pyridin-3-yl]oxy}pyridine], the MIC in test [1] and in test [2] was not above 0.1 µg/mL each time.
`COc1ccccc1-c1cccnc1Oc1cnc2c(c1)CCCC2O` (stereo not shown) [I-140, 3-{[3-(2-methoxyphenyl)pyridin-2-yl]oxy}-5,6,7,8-tetrahydroquinolin-8-ol]: the MIC in test [1] and in test [2] was 0.2 to 0.78 µg/mL (≈ 0.574 to 2.24 µM) in each case.
Regarding `CCCCN(C)c1ncc(Oc2ncccc2-c2cnccc2OC)cn1` [I-384], the MIC in test [1] and in test [2] was not above 0.1 µg/mL each time.
Take `CCc1ccc(Oc2ncccc2-c2cnccc2OC)cc1` [I-253, 2-(4-ethylphenoxy)-4′-methoxy-3,3′-bipyridine]: the MIC in test [1] and in test [2] was not above 0.1 µg/mL each time.
Take `COc1ccccc1-c1cccnc1Oc1ccc(C(F)(F)Cn2ccnc2)nc1` [I-351, 2-({6-[1,1-difluoro-2-(1H-imidazol-1-yl)ethyl]pyridin-3-yl}oxy)-3-(2-methoxyphenyl)pyridine]: the MIC in test [1] and in test [2] was 0.2 to 0.78 µg/mL (≈ 0.49 to 1.91 µM) in each case.
In the case of `CCCN(C)c1ccc(Oc2ncccc2-c2ccc(F)cc2OC)cn1` [I-368, 5-{[3-(4-fluoro-2-methoxyphenyl)pyridin-2-yl]oxy}-N-methyl-N-propylpyridin-2-amine], the MIC in test [1] and in test [2] was not above 0.1 µg/mL throughout.
With `COCC(F)(F)c1ccc(Oc2ncccc2-c2cccc3cccnc23)cn1` [I-169, 8-(2-{[6-(1,1-difluoro-2-methoxyethyl)pyridin-3-yl]oxy}pyridin-3-yl)quinoline], the MIC in test [1] and in test [2] was 0.2 to 0.78 µg/mL (≈ 0.508 to 1.98 µM) each time.
Turning to `CCc1ccc(Oc2ncccc2-c2cncc(F)c2OC)cc1` [I-283, 2-(4-ethylphenoxy)-5′-fluoro-4′-methoxy-3,3′-bipyridine], the MIC in test [1] and in test [2] was not above 0.1 µg/mL throughout.
Regarding `COc1ccc(-c2cccnc2Oc2cnc(C(F)F)c(C)c2)c(OC)n1` [I-123, 2′-{[6-(difluoromethyl)-5-methylpyridin-3-yl]oxy}-2,6-dimethoxy-3,3′-bipyridine], the minimum inhibitory concentration (MIC) in test [1] and in test [2] was not above 0.1 µg/mL each time.
For `COc1ncccc1-c1cccnc1Oc1ccc(CCn2cccn2)cc1` [I-400, 2-{4-[2-(1H-pyrazol-1-yl)ethyl]phenoxy}-2′-methoxy-3,3′-bipyridine], the MIC in test [1] and in test [2] was not above 0.1 µg/mL in each case.
Take `COCC(F)(F)c1ccc(Oc2ncccc2-c2cc(OC)ccc2F)cn1` [I-458]: the MIC in test [1] and in test [2] was not above 0.1 µg/mL throughout.
For `COc1ccccc1-c1cccnc1Oc1cnc2c(c1)CCCC2(F)F` [I-142, 8,8-difluoro-3-{[3-(2-methoxyphenyl)pyridin-2-yl]oxy}-5,6,7,8-tetrahydroquinoline], the MIC in test [1] and in test [2] was not above 0.1 µg/mL throughout.
Regarding `COc1ccccc1-c1cccnc1Oc1cnc2c(c1)CCCC2` [I-134, 3-{[3-(2-methoxyphenyl)pyridin-2-yl]oxy}-5,6,7,8-tetrahydroquinoline], the MIC in test [1] and in test [2] was not above 0.1 µg/mL in each case.
Take `CC(F)(F)c1ccc(Oc2ncccc2-c2cccc3ccnn23)cc1` [I-307, 7-{2-[4-(1,1-difluoroethyl)-phenoxy]pyridin-3-yl}pyrazolo[1,5-a]pyridine]: the MIC in test [1] and in test [2] was not above 0.1 µg/mL each time.
In the case of `COc1ccc(F)cc1-c1cccnc1Oc1ccc(C(F)(F)F)nc1` [I-11, 3-(5-fluoro-2-methoxyphenyl)-2-{[6-(trifluoromethyl)pyridin-3-yl]oxy}pyridine], the MIC in test [1] and in test [2] was not above 0.1 µg/mL in each case.
Consider `CCN(C)c1ncc(Oc2ncccc2-c2cccc3c2OCC3)cn1` [I-340, 5-{[3-(2,3-dihydrobenzofuran-7-yl)pyridin-2-yl]oxy}-N-ethyl-N-methylpyrimidin-2-amine], for which the MIC in test [1] and in test [2] was not above 0.1 µg/mL throughout.
With `COc1ccccc1-c1cccnc1Oc1cnc(C(F)(F)F)c(C)c1` [I-117, 5-{[3-(2-methoxyphenyl)pyridin-2-yl]oxy}-3-methyl-2-(trifluoromethyl)pyridine], the MIC in test [1] and in test [2] was not above 0.1 µg/mL throughout.
Turning to `COc1ccncc1-c1cccnc1Oc1ccc(C(=O)OC(C)C)cc1` [I-418], the MIC in test [1] and in test [2] was not above 0.1 µg/mL in each case.
Turning to `COc1ccncc1-c1cccnc1Oc1ccc(C(C)=O)cc1` [I-244], the MIC in test [1] and in test [2] was 1.56 to 6.25 µg/mL (≈ 4.87 to 19.5 µM) throughout.
Consider `CC(F)(F)c1ccc(Oc2ncccc2-c2cccnc2N2CCCC2)cn1` [I-105], for which the MIC in test [1] and in test [2] was 1.56 to 6.25 µg/mL (≈ 4.08 to 16.3 µM) throughout.
For `Cc1ccncc1-c1cccnc1Oc1ccc(C(C)(F)F)cc1` [I-299, 2-[4-(1,1-difluoroethyl)-phenoxy]-4′-methyl-3,3′-bipyridine], the MIC in test [1] and in test [2] was not above 0.1 µg/mL in each case.
For the compound `CN(C)c1ccccc1-c1cccnc1Oc1ccc(C(F)(F)F)nc1` [I-62, N,N-dimethyl-2-(2-{[6-(trifluoromethyl)pyridin-3-yl]oxy}pyridin-3-yl)-aniline], the values for the MIC in test [1] and in test [2] were 0.2 to 0.78 µg/mL (≈ 0.557 to 2.17 µM) and 1.56 to 6.25 µg/mL (≈ 4.34 to 17.4 µM), respectively.
On the same counts, the results for `COc1ccccc1-c1ccnnc1Oc1ccc(C(F)(F)F)nc1` [I-311, 4-(2-methoxyphenyl)-3-{[6-(trifluoromethyl)pyridin-3-yl]oxy}pyridazine] are 0.2 to 0.78 µg/mL (≈ 0.576 to 2.25 µM) and 0.2 to 0.78 µg/mL (≈ 0.576 to 2.25 µM).
On the same counts, the results for `Fc1cc2c(c(-c3cccnc3Oc3ccc(C(F)(F)F)nc3)c1)OCC2` [I-41, 3-(5-fluoro-2,3-dihydrobenzofuran-7-yl)-2-{[6-(trifluoromethyl)pyridin-3-yl]oxy}pyridine] are not above 0.1 µg/mL and not above 0.1 µg/mL.
On the same counts, the results for `COc1ncccc1-c1cccnc1Oc1ccc(C2CC2)nc1` [I-130, 2-[(6-cyclopropylpyridin-3-yl)oxy]-2′-methoxy-3,3′-bipyridine] are 0.2 to 0.78 µg/mL (≈ 0.626 to 2.44 µM) and 0.2 to 0.78 µg/mL (≈ 0.626 to 2.44 µM).
As to `CCc1ccccc1-c1cccnc1Oc1ccc(C(F)(F)F)nc1` [I-16, 3-(2-ethylphenyl)-2-{[6-(trifluoromethyl)pyridin-3-yl]oxy}pyridine], the MIC in test [1] and in test [2] was not above 0.1 µg/mL each time.
Take `C#Cc1ccc(Oc2ncccc2-c2cccnc2OC)cc1` [I-390, 2-(4-ethynylphenoxy)-2′-methoxy-3,3′-bipyridine]: the minimal inhibitory concentration (MIC) in test [1] and in test [2] was not above 0.1 µg/mL each time.
